# Data taken from US6756409B2, “Phenoxyphenyl alkanesulphonates” (priority 2001, dated 2004).
# What was measured:
# CB1 receptor = target: T1, CB1 receptor (Rattus norvegicus, UniProt P20272); test: Rat hypothermia agonism test; type: in vivo; settings: oral administration
# T1 construct: from tissue; host or cells: whole animal (rat), in vivo
# Protocol: The in vivo agonistic effect on the CB1 receptor was examined in the rat hypothermia assay.
# Five minutes after determining the basal body temperature via an oesophageal temperature probe, the test substance is administered (orally). A control group receives, likewise orally, only the solvent for the test substances (Cremophors EL 1-10%+distilled water). The body temperature is measured 120 and 240 minutes after oral administration. The size of the group for each dose is 5-7 animals (rats).
# Rat Hypothermia Agonism Test
# [1] = Pharmacokinetics in the rat; type: in vivo; settings: for AUCstand / Cmax,stand: standardized to 1 mg/kg; for half-life: terminal half-life
# Protocol: 5. Pharmacokinetics in the Rat
# The substance is infused through a Braunüle in a lateral tail vein directly into the blood stream over 15 minutes. A calibrated 20 ml syringe is used for accurate administration of the chosen dose and volume. A Braun Melsungen No. 152440/1 pump is used for the infusion.
# The substance is administered as bolus by gavage.
# Blood samples are collected from catheterized animals (jugular vein) in heparinized tubes. The blood is centrifuged and the plasma is prepared in a suitable manner for analysis (LC-MS-MS). The plasma is stored at <−15° C. until analysed.
# AUCstand: the area, standardized to a dose of 1 mg/kg, under the plasma concentration/time curve;
# Cmax,stand: the maximum plasma concentration after a single administration, standardized to a dose of 1 mg/kg;
# tmax: the time at which the maximum plasma concentration is reached after a single dose;
# t1/2: terminal half-life;
# F: bioavailability; in this case the percentage, compared with i.v. administration, of the dose which is systemically available;
# VSS: apparent volume of distribution at the steady state.
# [2] = test system: chronic mechanical hyperalgesia in axotomized rats; test: Axotomy of sciatic branches in the rat (chronic pain model); type: in vivo; settings: orally, acute administration, 60 minutes before the test
# Protocol: 7. Axotomy of Sciatic Branches in the Rat (Chronic Pain Model)
# Under pentobarbital anaesthesia, the trifurcation of a sciatic nerve is exposed, and the peroneal and tibial branches are axotomized after the nerves have been ligated proximal of the axotomy site. Control animals undergo a sham operation. After the operation, the axotomized animals develop chronic mechanical hyperalgesia. This hyperalgesia is tested, comparing with sham-operated animals, with the aid of a pressure transducer (electronic von Frey anesthesiometer, IITC Inc.—Life Science Instruments, Woodland Hills, Calif., USA).
# The substance is administered by various administration routes (i.v., i.p., orally, i.t., i.c.v., transdermally) at various times before the pain testing.
# [3] = Microsomal stability investigations; type: in vitro ADME; settings: maximum possible bioavailability extrapolated from rat liver microsomes, 37° C., 15 minutes
# Protocol: 4. Microsomal Stability Investigations
# The metabolic stability of the compounds according to the invention can be measured in rat liver microsomes (in analogy to J. Pharmacol. Exp. Ther. 1997, 283, 46-58).
# To determine the microsomal stability and extrapolate to the maximum possible bioavailability (Fmax) owing to the first-pass effect in the liver (phase 1 reactions), the substance is incubated in low concentration with microsomal protein, with addition of cofactors, at 37° C. for 15 minutes.
# The incubation and the sampling take place on a modified automatic pipettor from Canberra Packard.
# rat CB1 receptor = target: T2, rat CB1 receptor (Rattus norvegicus, UniProt P20272); test: Rat CB1 luciferase reporter gene test; type: cell-based; settings: rat CHOCB1 reporter cell line, forskolin-stimulated luciferase activity
# T2 construct: expressed in transfected cells; host or cells: CHO (CHOluc9-derived reporter line, by analogy with the CB2 line)
# T2 sequence (P20272 whole entry): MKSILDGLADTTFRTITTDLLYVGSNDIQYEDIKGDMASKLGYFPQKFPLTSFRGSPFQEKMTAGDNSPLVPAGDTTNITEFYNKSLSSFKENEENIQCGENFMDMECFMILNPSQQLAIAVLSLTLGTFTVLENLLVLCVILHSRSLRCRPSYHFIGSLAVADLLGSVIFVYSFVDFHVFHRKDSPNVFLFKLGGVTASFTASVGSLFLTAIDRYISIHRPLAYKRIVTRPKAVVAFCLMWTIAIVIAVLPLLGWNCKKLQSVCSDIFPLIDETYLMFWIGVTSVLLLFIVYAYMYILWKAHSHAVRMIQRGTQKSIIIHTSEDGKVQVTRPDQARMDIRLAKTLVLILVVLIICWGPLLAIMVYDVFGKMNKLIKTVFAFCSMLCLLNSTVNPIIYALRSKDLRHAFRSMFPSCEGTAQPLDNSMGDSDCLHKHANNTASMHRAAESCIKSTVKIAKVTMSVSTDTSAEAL
# Protocol: 1. Rats CB1 Luciferase Reporter Gene Test
# Stock cultures of a rat CHOCB1 reporter cell line were prepared by the method described in WO-A-98/37061, page 55 et seq.
# The following test protocol was used for the substance screening: the stock cultures were cultivated in 50% of Dulbecco's modified Eagle medium/50% F-12 (DMEM/F12) with 10% FCS at 37° C. under 10% CO2 and split 1:10 after 2 to 3 days in each case. Test cultures were seeded with 5000 cells per well in 96-well plates and cultured at 37° C. for 70 hours. The cultures were then cautiously washed with phosphate-buffered saline and reconstituted with serum-free Ultra-CHO medium (Bio-Whittaker). The substances dissolved in DMSO were diluted 1× in medium and pipetted into the test cultures (maximum DMSO final concentration in test mixture: 0.5%). 20 minutes later, forskolin was added and the cultures were then incubated in an incubator at 37° C. for 3 hours. […] Immediately thereafter luciferase substrate solution (2.5 mM ATP, 0.5 mM luciferin, 0.1 mM coenzyme A, 10 mM tricine, 1.35 mM MgSO4, 15 mM DTT, pH 7.8) was added and briefly shaken, and the luciferase activity was measured using a Hamamatsu camera system. […]
# The IC50 values were calculated using the GraphPadPrism program (Hill equation, specifically: one-site competition).
# T1 sequence (P20272 whole entry): as above
Structure (SMILES),ED−1° C. (effective dose for reducing the body temperature by 1° C.) (CB1 receptor),"AUCstand ([1]; i.v. infusion, dose 0.3 mg/kg)","Cmax,stand ([1]; i.v. infusion, dose 0.3 mg/kg)","F ([1]; oral, dose 3 mg/kg, bioavailability compared with i.v. administration)","AUCstand ([1]; oral, dose 3 mg/kg)","Cmax,stand ([1]; oral, dose 3 mg/kg)","Vd ([1]; plasma, iv, i.v. infusion, dose 0.3 mg/kg, apparent volume of distribution at steady state, read-out: VSS)","half-life ([1]; plasma, iv, i.v. infusion, dose 0.3 mg/kg)","Tmax ([1]; plasma, oral, dose 3 mg/kg)","half-life ([1]; plasma, oral, dose 3 mg/kg)",minimally effective dose reducing hyperalgesia [2],Fmax [3],IC50 (rat CB1 receptor)
O=S(=O)(CCCC(F)(F)F)Oc1cccc(Oc2cccc(C(F)(F)F)c2Cl)c1 [Example 22],10 mg/kg,0.307 kg·h/L,0.5978 kg/L,33%,0.102 kg·h/L,0.0198 kg/L,4.12 L/kg,1.6 h,2.29 h,2.36 h,1 mg/kg,–,–
Cc1c(Cl)cccc1Oc1cccc(OS(=O)(=O)CCCC(F)(F)F)c1 [Example 15],–,–,–,–,–,–,–,–,–,–,–,4%,–
O=S(=O)(CCCC(F)(F)F)Oc1cccc(Oc2ccccc2OC(F)(F)F)c1 [Example 17],–,–,–,–,–,–,–,–,–,–,–,40%,0.81 nM
